# In PubChem BioAssay (NCI):
#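 1) Cells in 96-well plates. 2) Compound, 48 h, 5 concentrations. 3) Linear interpolation between surrounding doses. 4) Unreached endpoint = highest concentration. Abbreviation: GI50, concentration required for 50% inhibition of growth. TGI: concentration producing complete growth inhibition.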
# Experiments:
# Assay in all cases: NCI-60 cell line screen, 48 h
# SK-MEL-5 melanoma = test system: SK-MEL-5 melanoma
# SF-268 CNS = test system: SF-268 CNS
# SK-MEL-28 melanoma = test system: SK-MEL-28 melanoma
# COLO 205 colon = test system: COLO 205 colon
# SNB-19 CNS = test system: SNB-19 CNS
# RPMI-8226 leukemia = test system: RPMI-8226 leukemia
# OVCAR-5 ovarian = test system: OVCAR-5 ovarian
# A549 NSCLC = test system: A549 NSCLC
# K-562 leukemia = test system: K-562 leukemia
# HL-60(TB) leukemia = test system: HL-60(TB) leukemia
# HOP-62 NSCLC = test system: HOP-62 NSCLC
# CAKI-1 renal = test system: CAKI-1 renal
# NCI-H23 lung = test system: NCI-H23 lung
# SR leukemia = test system: SR leukemia
# LOX IMVI melanoma = test system: LOX IMVI melanoma
# T-47D breast = test system: T-47D breast
# MCF7 breast = test system: MCF7 breast
SMILES,TGI (SK-MEL-5 melanoma) [µM],TGI (SF-268 CNS) [µM],TGI (SK-MEL-28 melanoma) [µM],TGI (COLO 205 colon) [µM],TGI (SNB-19 CNS) [µM],TGI (RPMI-8226 leukemia) [µM],TGI (OVCAR-5 ovarian) [µM],TGI (A549 NSCLC) [µM],TGI (K-562 leukemia) [µM],TGI (HL-60(TB) leukemia) [µM],TGI (HOP-62 NSCLC) [µM],TGI (CAKI-1 renal) [µM],TGI (NCI-H23 lung) [µM],TGI (SR leukemia) [µM],TGI (LOX IMVI melanoma) [µM],TGI (T-47D breast) [µM],TGI (MCF7 breast) [µM],GI50 (SK-MEL-5 melanoma) [µM],GI50 (SF-268 CNS) [µM]
COC(=O)C(Br)C1CCc2ccccc21 (stereo not drawn),> 100,> 100,> 100,> 100,> 100,> 100,> 100,> 100,> 100,> 100,> 100,> 100,> 100,> 100,> 100,,,,
CCN(CC)c1ccc2nc3ccc(N=Nc4c(O)ccc5ccccc45)cc3[n+](-c3ccccc3)c2c1,> 100,> 100,> 100,> 100,> 100,> 100,> 100,> 100,> 100,> 100,> 100,> 100,> 100,> 100,,> 100,,,
C/C=C1\CN2CCc3c([nH]c4ccccc34)C2C=C1CCO (stereo not drawn),> 340,> 340,> 340,> 340,> 340,> 340,> 340,> 340,> 340,> 340,> 340,> 340,> 340,> 340,> 340,,,,
CN(C)c1snc2c1c(=O)n(C)c(=O)n2C,> 100,> 100,> 100,> 100,> 100,> 100,> 100,> 100,> 100,> 100,> 100,> 100,> 100,,> 100,,,,
COC(=O)[C@H]1COC(=O)N1,> 100,> 100,> 100,> 100,> 100,,> 100,> 100,> 100,> 100,> 100,> 100,> 100,,> 100,> 100,> 100,,
O=C1c2ccccc2C(=O)C1C(c1ccc(F)cc1)C1C(=O)c2ccccc2C1=O,> 100,> 100,> 100,> 100,> 100,> 100,> 100,> 100,> 100,> 100,> 100,> 100,> 100,> 100,> 100,,,,
O=c1c(-c2ccccc2F)coc2cc(F)ccc12,> 100,> 100,> 100,> 100,> 100,,> 100,> 100,,> 100,> 100,> 100,> 100,,> 100,> 100,,,
COC(=O)C(C(=O)C(=O)Nc1cccc([N+](=O)[O-])c1)c1nc2ccc([N+](=O)[O-])cc2[nH]c1=O (stereo not drawn),> 100,> 100,> 100,> 100,> 100,,> 100,> 100,> 100,> 100,> 100,> 100,> 100,> 100,> 100,,,,
COc1cc2c(cc1OC)C(=O)C1(C2)[C@H](c2ccccc2)C2C(=O)c3cc(OC)c(OC)cc3C2[C@H]1c1ccccc1 (stereo partly drawn),> 100,> 100,> 100,> 100,> 100,> 100,> 100,> 100,> 100,> 100,> 100,0.648,> 100,> 100,> 100,> 100,,,
O=c1cc(-c2ccco2)[nH]c2cc3c(cc12)OCO3,> 100,> 100,> 100,78.5,> 100,> 100,,> 100,> 100,> 100,43.8,,> 100,> 100,> 100,,,13.4,42.1
CC(=O)OCC1OC(O[C@@H]2C[C@H]3C(C)(C)[C@@H](OC(C)=O)CC[C@]3(C)[C@H]3CC[C@]45C[C@]4(CC[C@H]5[C@@H](C)C[C@@H](O)[C@H](O)C(C)(C)F)[C@@]32C)C(O)C(O)C1O (stereo partly drawn),3.2,3.05,3.3,3.38,3.1,4.24,2.81,3.12,,2.75,> 100,> 100,4.56,,4.33,> 100,> 100,,
O=C(NC(Cc1cnc[nH]1)C(=O)N1CCCC1)C1CCCC1 (stereo not drawn),> 100,,> 100,> 100,> 100,> 100,> 100,> 100,> 100,> 100,> 100,> 100,> 100,> 100,> 100,,> 100,,
C#CCN(N=O)C(=O)NCCCCC(NC(C)=O)C(=O)NCc1ccccc1 (stereo not drawn),> 100,> 100,> 100,> 100,> 100,> 100,> 100,> 100,> 100,,> 100,> 100,> 100,> 100,> 100,,,,
CC1(C)N=C(N)N=C(N)N1c1cccc(C(=O)Nc2ccc(S(=O)(=O)F)cc2)c1,> 100,> 100,> 100,> 100,> 100,> 100,> 100,> 100,> 100,> 100,> 100,> 100,> 100,,> 100,> 100,> 100,,
CCOC(=O)c1c(C)n(C)c2c1cc(O)c1[nH]c3c(c12)CCCC3,25.6,21.8,32.8,23.5,> 100,18.7,65.1,58.7,40.3,46.7,> 100,> 100,52.7,,29.7,48.4,19.4,,
